Results: US8772480B2, “Inhibitors of PI3 kinase and/or mTOR” (priority 2009, dated 2014)

Columns and labels:
[1] = molecular target: ProfilerPro Kinase Selectivity Assay Kit kinases (Homo sapiens, UniProt O14757); assay type: biochemical; details: CHK1; 1 μM compound concentration
Experimental: (§1) Compounds were profiled using a LabChip® EZ Reader II platform and a ProfilerPro Kinase Selectivity Assay Kit (Caliper Lifesciences Inc., Hopkinton, Mass.). Compounds were tested at a concentration of 1 M in duplicate, with mean data reported as percent of control (POC).

[2] = molecular target: ProfilerPro Kinase Selectivity Assay Kit kinases (Homo sapiens, UniProt O75116); assay type: biochemical; details: ROCK2; 1 μM compound concentration
Experimental: as §1

[3] = molecular target: ProfilerPro Kinase Selectivity Assay Kit kinases (Homo sapiens, UniProt O95819); assay type: biochemical; details: HGK; 1 μM compound concentration
Experimental: as §1

[4] = molecular target: ProfilerPro Kinase Selectivity Assay Kit kinases (Homo sapiens, UniProt P06213); assay type: biochemical; details: INSR; 1 μM compound concentration
Experimental: as §1

[5] = molecular target: ProfilerPro Kinase Selectivity Assay Kit kinases (Homo sapiens, UniProt P17612); assay type: biochemical; details: PKA alpha; 1 μM compound concentration
Experimental: as §1

[6] = molecular target: ProfilerPro Kinase Selectivity Assay Kit kinases (Homo sapiens, UniProt P31751); assay type: biochemical; details: AKT2; 1 μM compound concentration
Experimental: as §1

[7] = molecular target: ProfilerPro Kinase Selectivity Assay Kit kinases (Homo sapiens, UniProt P48730); assay type: biochemical; details: CK1 delta; 1 μM compound concentration
Experimental: as §1

[8] = molecular target: ProfilerPro Kinase Selectivity Assay Kit kinases (Homo sapiens, UniProt P49137); assay type: biochemical; details: MAPKAPK2; 1 μM compound concentration
Experimental: as §1

[9] = molecular target: ProfilerPro Kinase Selectivity Assay Kit kinases (Homo sapiens, UniProt Q06187); assay type: biochemical; details: BTK; 1 μM compound concentration
Experimental: as §1

[10] = molecular target: ProfilerPro Kinase Selectivity Assay Kit kinases (Homo sapiens, UniProt Q13177); assay type: biochemical; details: PAK2; 1 μM compound concentration
Experimental: as §1

[11] = molecular target: ProfilerPro Kinase Selectivity Assay Kit kinases (Homo sapiens, UniProt Q8IW41); assay type: biochemical; details: PRAK; 1 μM compound concentration
Experimental: as §1

[12] = molecular target: ProfilerPro Kinase Selectivity Assay Kit kinases (Homo sapiens, UniProt Q9P0L2); assay type: biochemical; details: MARK1; 1 μM compound concentration
Experimental: as §1

[13] = molecular target: ProfilerPro Kinase Selectivity Assay Kit kinases (Homo sapiens, UniProt Q9P1W9); assay type: biochemical; details: PIM2; 1 μM compound concentration
Experimental: as §1

PI3Kα = PI3Kα (Homo sapiens (Human), UniProt P42336); details: read-out: PI3Kα AlphaScreen ® Ki
[14] = molecular target: human mutant B-raf (HuBraf V600E) (Homo sapiens (Human), UniProt P15056, V600E); details: at 10 μM compound concentration; POC = 100 − percent inhibition
[15] = system: phosphorylation of Akt at Serine 473 in U87 MG cells; assay: cells; details: Homo sapiens, U-87 MG, 2 h, read-out: U87Cell IC50, pAkt (Ser 473), U87 MG cells, two hours with compound
Experimental: pAkt Aplhascreen (U87 Cell)
This assay was performed using U87 MG cells. […] The cells were maintained weekly using 0.05% Trypsin (Gibco) and replated in 150 mm TC—Treated Culture Dishes (Corning, Corning, N.Y.).
The first day of the assay, the adherent cells were trypsinized, media was added to the loose cells and cells were mixed to a homogenous mixture. 0.5 ml of the homogenous mixture was counted on the Beckman Coulter® Vi-CELL™ XR (Fullerton, Calif.). 50 frames of cells were counted and the number of viable cells was determined. The cells were then diluted to 0.25 million cells per ml, and centrifuged at 200 rcf for 5 minutes. The media was removed and the cells were reconstituted in fresh media for plating. The cells were plated at 20 μl per well on the PerkinElmer® FlexDrop PLUS in Low Volume 384 Well White Tissue Culture Plates (Corning) with a final cell density of 5K cells per well. The plates were incubated overnight at 37° Celsius, 5% CO2.
After two hours, the media in the cell plates was aspirated using the BioTek® ELx405HT plate washer (Winooski, Vt.) removing the majority of media and compound without disturbing the adherent U87 cells. […] The plates were then incubated at room temperature on a shaker for ten minutes. […] The AlphaScreen® reaction was added to the cell lysate at 6 μl per well using the PerkinElmer® FlexDrop PLUS. The plates were placed in a humid environment to reduce edge effects and incubated overnight at room temperature with restricted air flow in the dark.

Chain of ProfilerPro Kinase Selectivity Assay Kit kinases (Homo sapiens, UniProt Q06187) (Q06187 2-659 limits assumed): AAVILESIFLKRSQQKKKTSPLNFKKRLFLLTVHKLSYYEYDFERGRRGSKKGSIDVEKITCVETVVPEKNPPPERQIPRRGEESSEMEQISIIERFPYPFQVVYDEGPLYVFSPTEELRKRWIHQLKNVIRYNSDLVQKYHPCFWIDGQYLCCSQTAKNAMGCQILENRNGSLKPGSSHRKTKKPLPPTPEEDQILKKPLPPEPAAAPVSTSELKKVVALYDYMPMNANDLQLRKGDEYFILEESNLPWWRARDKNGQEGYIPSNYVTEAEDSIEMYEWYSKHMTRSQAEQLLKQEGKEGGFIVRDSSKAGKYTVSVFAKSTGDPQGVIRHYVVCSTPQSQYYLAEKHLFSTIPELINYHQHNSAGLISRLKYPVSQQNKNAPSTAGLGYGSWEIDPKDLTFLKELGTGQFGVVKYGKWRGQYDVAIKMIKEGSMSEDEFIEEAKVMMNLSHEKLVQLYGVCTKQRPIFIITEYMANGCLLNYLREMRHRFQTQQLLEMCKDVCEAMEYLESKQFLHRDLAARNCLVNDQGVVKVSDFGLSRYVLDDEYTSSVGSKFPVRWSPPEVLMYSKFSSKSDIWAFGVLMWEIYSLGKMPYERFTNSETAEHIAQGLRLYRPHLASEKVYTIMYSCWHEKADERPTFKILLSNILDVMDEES
Chain of ProfilerPro Kinase Selectivity Assay Kit kinases (Homo sapiens, UniProt O95819) (O95819 2-1239 limits assumed): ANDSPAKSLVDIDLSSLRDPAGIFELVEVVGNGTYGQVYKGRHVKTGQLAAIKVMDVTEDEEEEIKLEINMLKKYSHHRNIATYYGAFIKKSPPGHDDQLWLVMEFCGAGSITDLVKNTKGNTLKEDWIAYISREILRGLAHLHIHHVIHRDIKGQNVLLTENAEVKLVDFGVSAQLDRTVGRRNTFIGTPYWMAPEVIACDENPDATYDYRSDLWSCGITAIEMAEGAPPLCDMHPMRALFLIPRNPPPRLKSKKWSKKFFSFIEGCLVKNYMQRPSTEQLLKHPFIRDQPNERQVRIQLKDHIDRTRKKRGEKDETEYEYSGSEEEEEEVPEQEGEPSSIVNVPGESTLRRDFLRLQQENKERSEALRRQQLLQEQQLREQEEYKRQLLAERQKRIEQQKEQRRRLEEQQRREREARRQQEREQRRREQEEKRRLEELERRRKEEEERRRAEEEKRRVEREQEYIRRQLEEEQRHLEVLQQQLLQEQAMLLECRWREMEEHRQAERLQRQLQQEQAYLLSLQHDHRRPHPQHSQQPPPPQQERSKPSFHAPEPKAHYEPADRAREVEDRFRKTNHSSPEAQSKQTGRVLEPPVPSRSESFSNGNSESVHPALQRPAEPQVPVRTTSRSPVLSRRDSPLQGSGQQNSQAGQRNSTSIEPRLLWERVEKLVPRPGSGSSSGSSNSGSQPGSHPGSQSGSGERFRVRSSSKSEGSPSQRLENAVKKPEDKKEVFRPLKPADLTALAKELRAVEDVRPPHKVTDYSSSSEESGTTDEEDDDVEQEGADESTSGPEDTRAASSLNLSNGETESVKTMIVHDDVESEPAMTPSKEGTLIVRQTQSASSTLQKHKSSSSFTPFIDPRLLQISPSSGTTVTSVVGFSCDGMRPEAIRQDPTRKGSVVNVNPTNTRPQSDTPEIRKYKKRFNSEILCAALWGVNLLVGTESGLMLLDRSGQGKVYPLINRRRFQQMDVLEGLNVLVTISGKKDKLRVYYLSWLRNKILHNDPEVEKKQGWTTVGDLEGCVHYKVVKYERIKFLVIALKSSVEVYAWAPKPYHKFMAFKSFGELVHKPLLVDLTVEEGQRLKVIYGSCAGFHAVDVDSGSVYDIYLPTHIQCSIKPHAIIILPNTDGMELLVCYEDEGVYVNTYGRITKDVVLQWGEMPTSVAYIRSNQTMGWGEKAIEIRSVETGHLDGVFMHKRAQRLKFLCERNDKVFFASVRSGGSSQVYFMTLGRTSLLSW
Chain of PI3Kα (P42336 whole entry): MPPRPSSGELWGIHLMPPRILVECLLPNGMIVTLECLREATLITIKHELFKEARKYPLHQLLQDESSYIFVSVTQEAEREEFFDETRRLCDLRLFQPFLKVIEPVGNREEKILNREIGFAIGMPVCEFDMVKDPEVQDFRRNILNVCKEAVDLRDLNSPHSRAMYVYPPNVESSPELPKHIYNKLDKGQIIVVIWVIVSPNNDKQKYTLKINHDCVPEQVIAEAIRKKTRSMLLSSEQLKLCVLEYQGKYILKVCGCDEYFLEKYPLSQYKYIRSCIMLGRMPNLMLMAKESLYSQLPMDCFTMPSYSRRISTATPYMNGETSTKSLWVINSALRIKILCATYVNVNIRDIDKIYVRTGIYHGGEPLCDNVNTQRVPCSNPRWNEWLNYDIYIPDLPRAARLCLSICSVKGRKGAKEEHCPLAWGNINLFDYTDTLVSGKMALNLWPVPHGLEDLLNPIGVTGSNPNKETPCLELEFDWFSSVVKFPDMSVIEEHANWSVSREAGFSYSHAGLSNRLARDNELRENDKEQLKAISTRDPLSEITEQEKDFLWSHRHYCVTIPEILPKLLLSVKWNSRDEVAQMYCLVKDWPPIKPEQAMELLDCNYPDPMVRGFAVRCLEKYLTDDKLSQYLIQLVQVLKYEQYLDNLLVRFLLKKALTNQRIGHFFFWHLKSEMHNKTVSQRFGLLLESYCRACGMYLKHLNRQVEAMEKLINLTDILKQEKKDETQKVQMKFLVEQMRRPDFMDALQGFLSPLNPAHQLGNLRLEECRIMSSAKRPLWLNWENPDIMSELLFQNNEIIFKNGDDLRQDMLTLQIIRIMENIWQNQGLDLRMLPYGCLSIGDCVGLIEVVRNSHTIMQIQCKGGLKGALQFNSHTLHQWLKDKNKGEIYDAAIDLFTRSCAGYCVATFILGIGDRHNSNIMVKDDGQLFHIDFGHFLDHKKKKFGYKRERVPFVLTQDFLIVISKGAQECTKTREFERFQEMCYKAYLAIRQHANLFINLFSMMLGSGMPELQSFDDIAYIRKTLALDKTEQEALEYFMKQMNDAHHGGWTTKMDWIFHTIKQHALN
Chain of PI3Kα (P27986 whole entry partner): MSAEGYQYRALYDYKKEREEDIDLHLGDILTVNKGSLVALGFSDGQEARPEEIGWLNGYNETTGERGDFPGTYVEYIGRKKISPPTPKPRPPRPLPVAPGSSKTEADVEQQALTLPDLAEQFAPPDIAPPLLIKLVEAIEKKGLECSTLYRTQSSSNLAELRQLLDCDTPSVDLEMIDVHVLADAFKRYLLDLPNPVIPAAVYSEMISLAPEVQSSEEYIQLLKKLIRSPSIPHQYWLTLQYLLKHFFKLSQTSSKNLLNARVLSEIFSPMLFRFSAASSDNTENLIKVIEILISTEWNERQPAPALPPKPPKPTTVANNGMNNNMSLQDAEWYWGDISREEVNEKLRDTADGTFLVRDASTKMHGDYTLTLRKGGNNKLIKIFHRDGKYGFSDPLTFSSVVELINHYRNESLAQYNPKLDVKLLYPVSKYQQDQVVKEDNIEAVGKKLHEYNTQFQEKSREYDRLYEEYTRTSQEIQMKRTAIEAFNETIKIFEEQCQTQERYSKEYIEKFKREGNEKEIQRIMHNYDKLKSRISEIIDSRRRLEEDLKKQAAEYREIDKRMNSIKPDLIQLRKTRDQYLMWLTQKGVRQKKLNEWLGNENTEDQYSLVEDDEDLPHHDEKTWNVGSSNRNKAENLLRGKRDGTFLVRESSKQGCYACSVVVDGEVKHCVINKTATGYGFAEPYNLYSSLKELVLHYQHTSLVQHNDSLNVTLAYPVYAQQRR
Chain of human mutant B-raf (HuBraf V600E) (P15056 whole entry V600E): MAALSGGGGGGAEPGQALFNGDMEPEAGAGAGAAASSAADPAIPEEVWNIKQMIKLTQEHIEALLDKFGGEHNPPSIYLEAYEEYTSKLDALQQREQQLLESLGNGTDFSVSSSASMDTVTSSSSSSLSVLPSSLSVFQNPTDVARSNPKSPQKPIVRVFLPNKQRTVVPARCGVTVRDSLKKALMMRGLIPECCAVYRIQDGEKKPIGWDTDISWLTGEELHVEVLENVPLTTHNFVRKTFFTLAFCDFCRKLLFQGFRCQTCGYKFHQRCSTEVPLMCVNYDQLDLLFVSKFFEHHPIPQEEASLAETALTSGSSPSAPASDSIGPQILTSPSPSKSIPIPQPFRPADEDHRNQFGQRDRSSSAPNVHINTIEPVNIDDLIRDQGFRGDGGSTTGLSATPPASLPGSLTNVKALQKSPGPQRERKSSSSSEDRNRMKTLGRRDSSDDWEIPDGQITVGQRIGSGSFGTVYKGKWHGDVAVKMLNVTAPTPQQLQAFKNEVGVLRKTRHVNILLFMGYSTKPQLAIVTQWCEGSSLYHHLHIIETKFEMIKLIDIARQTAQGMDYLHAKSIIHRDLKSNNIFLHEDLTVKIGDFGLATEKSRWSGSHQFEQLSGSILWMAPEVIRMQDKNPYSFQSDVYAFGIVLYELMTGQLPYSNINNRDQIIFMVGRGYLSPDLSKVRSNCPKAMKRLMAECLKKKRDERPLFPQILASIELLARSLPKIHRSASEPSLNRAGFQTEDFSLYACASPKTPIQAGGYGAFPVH
Chain of ProfilerPro Kinase Selectivity Assay Kit kinases (Homo sapiens, UniProt Q13177) (Q13177 2-524 limits assumed): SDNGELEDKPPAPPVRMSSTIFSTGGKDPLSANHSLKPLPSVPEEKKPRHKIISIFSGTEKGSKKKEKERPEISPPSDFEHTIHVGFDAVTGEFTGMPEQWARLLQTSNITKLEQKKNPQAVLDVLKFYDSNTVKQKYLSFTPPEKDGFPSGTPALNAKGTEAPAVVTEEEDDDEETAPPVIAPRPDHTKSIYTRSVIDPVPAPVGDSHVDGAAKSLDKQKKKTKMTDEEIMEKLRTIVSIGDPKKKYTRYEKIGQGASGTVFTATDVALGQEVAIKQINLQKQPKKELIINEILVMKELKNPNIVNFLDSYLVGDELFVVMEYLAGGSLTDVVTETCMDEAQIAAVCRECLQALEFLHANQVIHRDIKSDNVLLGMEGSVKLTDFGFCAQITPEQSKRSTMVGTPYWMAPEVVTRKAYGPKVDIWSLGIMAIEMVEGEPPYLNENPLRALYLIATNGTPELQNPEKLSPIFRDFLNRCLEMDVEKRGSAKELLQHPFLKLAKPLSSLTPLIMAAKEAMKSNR

COc1ccc(Nc2ncc(CN3CCN(C(C)=O)CC3)cc2-c2nc(C)nc3[nH]cnc23)cn1 [Example 89, 1-(4-((6-(6-methoxypyridin-3-ylamino)-5-(2-methyl-9H-purin-6-yl)pyridin-3-yl)methyl)piperazin-1-yl)ethanone]
POC (Percent of control) CHK1 [1]: 99 POC | POC (Percent of control) ROCK2 [2]: 101 POC | POC (Percent of control) HGK [3]: 95 POC | POC (Percent of control) INSR [4]: 97 POC | POC (Percent of control) PKA alpha [5]: 99 POC | POC (Percent of control) AKT2 [6]: 93 POC | POC (Percent of control) CK1 delta [7]: 98 POC | POC (Percent of control) MAPKAPK2 [8]: 100 POC | POC (Percent of control) BTK [9]: 102 POC | POC (Percent of control) PAK2 [10]: 97 POC | POC (Percent of control) PRAK [11]: 99 POC | POC (Percent of control) MARK1 [12]: 92 POC | POC (Percent of control) PIM2 [13]: 93 POC | Ki (PI3Kα): 42 nM | Mutant B-raf HTRF Assay POC Mean n = 2 [14]: 102% of Control (POC) | IC50 [15]: 146 nM

Cc1nc(N)nc(-c2cc(CN3CCN(S(C)(=O)=O)CC3)cnc2Nc2cccc(O)c2)n1 [Example 30, 3-(3-(4-Amino-6-Methyl-1,3,5-Triazin-2-yl)-5-((4-(Methyl Sulfonyl)Piperazin-1-yl)Methyl)Pyridin-2-Ylamino)Phenol]
POC (Percent of control) CHK1 [1]: 96 POC | POC (Percent of control) ROCK2 [2]: 98 POC | POC (Percent of control) HGK [3]: 96 POC | POC (Percent of control) INSR [4]: 102 POC | POC (Percent of control) PKA alpha [5]: 100 POC | POC (Percent of control) AKT2 [6]: 105 POC | POC (Percent of control) CK1 delta [7]: 95 POC | POC (Percent of control) MAPKAPK2 [8]: 103 POC | POC (Percent of control) BTK [9]: 97 POC | POC (Percent of control) PAK2 [10]: 105 POC | POC (Percent of control) PRAK [11]: 112 POC | POC (Percent of control) MARK1 [12]: 98 POC | POC (Percent of control) PIM2 [13]: 99 POC | Ki (PI3Kα): 8 nM | Mutant B-raf HTRF Assay POC Mean n = 2 [14]: 92% of Control (POC) | IC50 [15]: 30 nM

c1cnc(Nc2cccc3[nH]ccc23)c(-c2ncnc3[nH]cnc23)c1 [Example 19, N-(3-(9H-Purin-6-yl)Pyridin-2-yl)-1H-Indol-4-Amine]
POC (Percent of control) CHK1 [1]: 83 POC | POC (Percent of control) ROCK2 [2]: 104 POC | POC (Percent of control) HGK [3]: 50 POC | POC (Percent of control) INSR [4]: 88 POC | POC (Percent of control) PKA alpha [5]: 70 POC | POC (Percent of control) AKT2 [6]: 110 POC | POC (Percent of control) CK1 delta [7]: 72 POC | POC (Percent of control) MAPKAPK2 [8]: 90 POC | POC (Percent of control) BTK [9]: 75 POC | POC (Percent of control) PAK2 [10]: 105 POC | POC (Percent of control) PRAK [11]: 84 POC | POC (Percent of control) MARK1 [12]: 95 POC | POC (Percent of control) PIM2 [13]: 105 POC | Ki (PI3Kα): 5620 nM | Mutant B-raf HTRF Assay POC Mean n = 2 [14]: 7% of Control (POC) | IC50 [15]: 2370 nM

Cc1cnc(Nc2cccc3[nH]ccc23)c(-c2nc(C)nc(N)n2)c1 [Example 46, N-(3-(4-Amino-6-Methyl-1,3,5-Triazin-2-yl)-5-Methylpyridin-2-yl)-1H-Indol-4-Amine]
POC (Percent of control) CHK1 [1]: 98 POC | POC (Percent of control) ROCK2 [2]: 94 POC | POC (Percent of control) HGK [3]: 104 POC | POC (Percent of control) INSR [4]: 98 POC | POC (Percent of control) PKA alpha [5]: 102 POC | POC (Percent of control) AKT2 [6]: 110 POC | POC (Percent of control) CK1 delta [7]: 91 POC | POC (Percent of control) MAPKAPK2 [8]: 98 POC | POC (Percent of control) BTK [9]: 98 POC | POC (Percent of control) PAK2 [10]: 95 POC | POC (Percent of control) PRAK [11]: 111 POC | POC (Percent of control) MARK1 [12]: 102 POC | POC (Percent of control) PIM2 [13]: 99 POC | Ki (PI3Kα): 130 nM | Mutant B-raf HTRF Assay POC Mean n = 2 [14]: 68% of Control (POC) | IC50 [15]: 79 nM

CCc1cnc(Nc2ccc(OC)nc2)c(-c2nc(C)nc3[nH]cnc23)c1 [Example 74, 5-ethyl-N-(6-methoxypyridin-3-yl)-3-(2-methyl-9H-purin-6-yl)pyridin-2-amine]
POC (Percent of control) CHK1 [1]: 101 POC | POC (Percent of control) ROCK2 [2]: 101 POC | POC (Percent of control) HGK [3]: 94 POC | POC (Percent of control) INSR [4]: 96 POC | POC (Percent of control) PKA alpha [5]: 102 POC | POC (Percent of control) AKT2 [6]: 96 POC | POC (Percent of control) CK1 delta [7]: 97 POC | POC (Percent of control) MAPKAPK2 [8]: 100 POC | POC (Percent of control) BTK [9]: 99 POC | POC (Percent of control) PAK2 [10]: 94 POC | POC (Percent of control) PRAK [11]: 97 POC | POC (Percent of control) MARK1 [12]: 111 POC | POC (Percent of control) PIM2 [13]: 92 POC | Ki (PI3Kα): 11 nM | Mutant B-raf HTRF Assay POC Mean n = 2 [14]: 111% of Control (POC) | IC50 [15]: 89 nM
